Laboratory results as given in US9676757B2, “Heterocyclic compounds as NaV channel inhibitors and uses thereof” (Merck Patent GmbH, priority 2014, dated 2017).
Read-outs that look alike come from different tables or passages of the source.

Target: Nav1.6 (Homo sapiens, UniProt Q9UQD0)
Assay: Nav two-pulse protocol, IonWorks Quattro electrophysiology
Type: cell-based
Conditions: -120 mV to 0 mV, compound incubated 300 s
Protocol: Compound Plate Preparation
Supplied compounds were sent as Assay Ready Plates, with 2 μL per well of compound in DMSO at 300× the final assay concentrations as described above and in the project proposal. All assay plates are stored at in a −80° C. freezer.
On the day of the assay, 198 μL of external solution was added to the appropriate assay plate and mixed thoroughly. This provided a 1:100 dilution. A further 1:3 dilution occurred upon addition to the cells in the IonWorks, giving a 1:300 dilution in total.
On each assay plate, at least 8 wells were reserved for vehicle control (0.3% DMSO) and at least 8 wells for each positive control specific to the cell line tested. The positive controls were tested in an 8-point dose response with 3-fold dilutions to determine an IC50 value for each run. The positive control compounds are outlined below.
Ion Channel Positive Control & Concentrations
Nav1.6/1.2 Lidocaine: 8, 3-fold dilutions starting at 100 μM
Electrophysiological Recording Solutions
The solutions for recording currents were are follows:
Amphotericin B was used to obtain electrical access to the cell interior at a final concentration of 200 μg/ml in internal recording solution.
Experimental Protocols & Data Analysis
Nav currents were evoked by stepping from a holding potential of −120 mV to 0 mV for 2.5 s (pulse 1), followed by a 5 ms inter-pulse interval, and stepping from a holding potential of −120 mV to 0 mV for 20 ms (pulse 2). The voltage protocol was applied (Pre), compounds added, incubated for 300 seconds, and the voltage protocol was applied a final time (Post) on the IonWorks Quattro.
The parameters measured were the maximum inward current evoked on stepping to 0 mV from the 1st and 2nd pulse. All data were filtered for seal quality, seal drop, and current amplitude. The peak current amplitude (Peak) was calculated before (Pre) and after (Post) compound addition to the amount of block was assessed by dividing the Post-compound current amplitude by the Pre-compound current amplitude. These procedures were implemented for the 1st and 2nd pulse.

Sequence of Nav1.6 (Q9UQD0 whole entry): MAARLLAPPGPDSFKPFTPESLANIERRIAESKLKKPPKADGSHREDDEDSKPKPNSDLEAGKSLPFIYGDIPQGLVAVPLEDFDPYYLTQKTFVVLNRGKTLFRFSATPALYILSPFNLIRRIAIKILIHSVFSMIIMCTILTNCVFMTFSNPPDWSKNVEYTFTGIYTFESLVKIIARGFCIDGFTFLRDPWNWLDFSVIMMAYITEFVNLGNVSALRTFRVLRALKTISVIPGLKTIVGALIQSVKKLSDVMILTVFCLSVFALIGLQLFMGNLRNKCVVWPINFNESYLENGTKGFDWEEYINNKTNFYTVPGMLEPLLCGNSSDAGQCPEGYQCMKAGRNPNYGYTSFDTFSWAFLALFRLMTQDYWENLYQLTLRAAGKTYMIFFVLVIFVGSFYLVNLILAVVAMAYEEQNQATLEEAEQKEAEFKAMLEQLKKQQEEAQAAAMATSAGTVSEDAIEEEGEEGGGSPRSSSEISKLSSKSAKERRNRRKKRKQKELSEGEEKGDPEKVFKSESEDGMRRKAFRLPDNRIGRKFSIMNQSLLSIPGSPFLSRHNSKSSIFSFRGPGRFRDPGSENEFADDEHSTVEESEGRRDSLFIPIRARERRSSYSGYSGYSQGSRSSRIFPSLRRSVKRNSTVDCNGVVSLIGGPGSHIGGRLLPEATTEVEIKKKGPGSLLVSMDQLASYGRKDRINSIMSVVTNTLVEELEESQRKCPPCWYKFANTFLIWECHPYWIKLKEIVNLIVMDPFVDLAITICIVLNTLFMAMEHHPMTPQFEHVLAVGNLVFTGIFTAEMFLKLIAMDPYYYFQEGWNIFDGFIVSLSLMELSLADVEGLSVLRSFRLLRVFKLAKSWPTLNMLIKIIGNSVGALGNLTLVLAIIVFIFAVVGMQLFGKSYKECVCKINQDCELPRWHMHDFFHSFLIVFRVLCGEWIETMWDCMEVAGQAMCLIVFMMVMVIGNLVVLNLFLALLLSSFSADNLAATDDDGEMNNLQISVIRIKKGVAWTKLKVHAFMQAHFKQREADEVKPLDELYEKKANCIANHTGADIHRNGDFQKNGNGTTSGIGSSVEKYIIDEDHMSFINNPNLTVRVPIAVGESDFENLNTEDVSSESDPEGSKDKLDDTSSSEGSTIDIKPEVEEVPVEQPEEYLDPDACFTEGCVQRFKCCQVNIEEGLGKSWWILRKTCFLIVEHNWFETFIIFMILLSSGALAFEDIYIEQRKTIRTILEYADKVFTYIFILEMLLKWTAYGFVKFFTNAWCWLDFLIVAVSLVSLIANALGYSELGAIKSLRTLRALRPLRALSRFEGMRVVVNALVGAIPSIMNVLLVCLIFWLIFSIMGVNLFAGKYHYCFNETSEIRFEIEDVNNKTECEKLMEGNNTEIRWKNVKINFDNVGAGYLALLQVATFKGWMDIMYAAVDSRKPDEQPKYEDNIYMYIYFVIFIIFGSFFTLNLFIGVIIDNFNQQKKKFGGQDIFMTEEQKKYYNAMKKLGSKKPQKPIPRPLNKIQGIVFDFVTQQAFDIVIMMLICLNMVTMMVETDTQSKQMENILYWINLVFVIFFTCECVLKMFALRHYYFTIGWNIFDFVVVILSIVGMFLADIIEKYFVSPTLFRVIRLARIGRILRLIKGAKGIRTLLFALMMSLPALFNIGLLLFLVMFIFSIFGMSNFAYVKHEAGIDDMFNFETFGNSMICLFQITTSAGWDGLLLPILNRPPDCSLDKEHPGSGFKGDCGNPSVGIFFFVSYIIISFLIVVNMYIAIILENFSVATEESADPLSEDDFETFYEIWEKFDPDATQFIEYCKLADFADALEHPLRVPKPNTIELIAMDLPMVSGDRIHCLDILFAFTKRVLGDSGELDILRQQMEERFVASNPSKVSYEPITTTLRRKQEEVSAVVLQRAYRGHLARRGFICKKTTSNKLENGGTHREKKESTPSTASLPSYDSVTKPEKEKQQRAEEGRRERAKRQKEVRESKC

Compound	IC50 (read-out: Nav1.6 Tonic)	IC50 (read-out: Nav1.6 inac)
Cc1ccc(Oc2cccc(CN3CCC(C(=O)NCc4ccccn4)C3)c2)cc1 (centres unmarked) [Compound 1, 1-(3-p-Tolyloxy-benzyl)-pyrrolidine-3-carboxylic acid (pyridin-2-ylmethyl)-amide]	> 20 µM	< 1 µM
COc1cccc(Oc2cccc(CN3CCC(C(=O)NCc4ccccn4)C3)c2)c1 (centres unmarked) [Compound 2, 1-[3-(3-Methoxy-phenoxy)-benzyl]-pyrrolidine-3-carboxylic acid (pyridin-2-ylmethyl)-amide]	> 20 µM	1 to 5 µM
O=C(NCc1ccccn1)C1CCN(Cc2cccc(Oc3ccc(F)c(F)c3)c2)C1 (centres unmarked) [Compound 3, 1-[3-(3,4-Difluoro-phenoxy)-benzyl]-pyrrolidine-3-carboxylic acid (pyridin-2-ylmethyl)-amide]	> 20 µM	1 to 5 µM
O=C(NCc1ccccn1)C1CCN(Cc2cccc(Oc3ccccn3)c2)C1 (centres unmarked) [Compound 4, 1-[3-(Pyridin-2-yloxy)-benzyl]-pyrrolidine-3-carboxylic acid (pyridin-2-ylmethyl)-amide]	10 to 20 µM	< 1 µM
O=C(NCc1ccccn1)C1CCN(Cc2cccc(Oc3cccc(C(F)(F)F)c3)c2)C1 (centres unmarked) [Compound 5, 1-[3-(3-Trifluoromethyl-phenoxy)-benzyl]-pyrrolidine-3-carboxylic acid (pyridin-2-ylmethyl)-amide]	> 20 µM	< 1 µM
COc1ccc(Oc2cccc(CN3CCC(C(=O)NCc4ccccn4)C3)c2)cc1 (centres unmarked) [Compound 6, 1-[3-(4-Methoxy-phenoxy)-benzyl]-pyrrolidine-3-carboxylic acid (pyridin-2-ylmethyl)-amide]	> 20 µM	> 5 µM
COc1ccccc1Oc1cccc(CN2CCC(C(=O)NCc3ccccn3)C2)c1 (centres unmarked) [Compound 7, 1-[3-(2-Methoxy-phenoxy)-benzyl]-pyrrolidine-3-carboxylic acid (pyridin-2-ylmethyl)-amide]	> 20 µM	< 1 µM
O=C(NCc1ccccn1)C1CCN(Cc2cccc(Oc3ccc(F)cc3F)c2)C1 (centres unmarked) [Compound 8, 1-[3-(2,4-Difluoro-phenoxy)-benzyl]-pyrrolidine-3-carboxylic acid (pyridin-2-ylmethyl)-amide]	> 20 µM	< 1 µM
Cc1cc(C)cc(Oc2cccc(CN3CCC(C(=O)NCc4ccccn4)C3)c2)c1 (stereo not drawn) [Compound 9, l-[3-(3,5-Dimethyl-phenoxy)-benzyl]-pyrrolidine-3-carboxylic acid (pyridin-2-ylmethyl)-amide]	> 20 µM	< 1 µM
Cc1ccc(Oc2cccc(CN3CCC(C(=O)NCc4ccccn4)C3)c2)cc1C (centres unmarked) [Compound 10, 1-[3-(3,4-Dimethyl-phenoxy)-benzyl]-pyrrolidine-3-carboxylic acid (pyridin-2-ylmethyl)-amide]	10 to 20 µM	1 to 5 µM
O=C(NCc1ccccn1)C1CCN(Cc2cccc(Oc3cccc(F)c3)c2)C1 (centres unmarked) [Compound 11, 1-[3-(3-Fluoro-phenoxy)-benzyl]-pyrrolidine-3-carboxylic acid (pyridin-2-ylmethyl)-amide]	10 to 20 µM	< 1 µM
O=C(NCc1ccccn1)C1CCN(Cc2cccc(Oc3cccnc3)c2)C1 (centres unmarked) [Compound 12, 1-[3-(Pyridin-3-yloxy)-benzyl]-pyrrolidine-3-carboxylic acid (pyridin-2-ylmethyl)-amide]	> 20 µM	1 to 5 µM
O=C(NCc1ccccn1)C1CCN(Cc2cccc(Oc3ccc(F)cc3)c2)C1 (centres unmarked) [Compound 13, 1-[3-(4-Fluoro-phenoxy)-benzyl]-pyrrolidine-3-carboxylic acid (pyridin-2-ylmethyl)-amide]	> 20 µM	< 1 µM
O=C(NCc1ccccn1)C1CCN(Cc2cccc(Oc3ccccc3F)c2)C1 (centres unmarked) [Compound 14, 1-[3-(2-Fluoro-phenoxy)-benzyl]-pyrrolidine-3-carboxylic acid (pyridin-2-ylmethyl)-amide]	> 20 µM	> 5 µM
O=C(NCc1ccccn1)C1CCN(Cc2ccc(F)c(Oc3ccccc3)c2)C1 (centres unmarked) [Compound 15, 1-(4-Fluoro-3-phenoxy-benzyl)-pyrrolidine-3-carboxylic acid (pyridin-2-ylmethyl)-amide]	> 20 µM	> 5 µM
Cc1cncc(Oc2cccc(CN3CCC(C(=O)NCc4ccccn4)C3)c2)n1 (centres unmarked) [Compound 18, 1-[3-(6-Methyl-pyrazin-2-yloxy)-benzyl]-pyrrolidine-3-carboxylic acid (pyridin-2-ylmethyl)-amide]	> 20 µM	> 5 µM

Compound	IC50 (read-out: Nav1.6 Tonic)	IC50 (read-out: Nav1.6 inac)
COc1ccc(Oc2cccc(CN3CCC(C(=O)NCc4ccccn4)C3)n2)cc1 (centres unmarked) [Compound 19, 1-[6-(4-Methoxy-phenoxy)-pyridin-2-ylmethyl]-pyrrolidine-3-carboxylic acid (pyridin-2-ylmethyl)-amide]	> 20 µM	1 to 5 µM
O=C(NCc1ccccn1)C1CCN(Cc2cccc(Oc3ccc(F)cc3)n2)C1 (centres unmarked) [Compound 20, 1-[6-(4-Fluoro-phenoxy)-pyridin-2-ylmethyl]-pyrrolidine-3-carboxylic acid (pyridin-2-ylmethyl)-amide]	> 20 µM	> 5 µM
Cc1cccc(Oc2cccc(CN3CCC(F)(C(=O)NCc4ccccn4)C3)c2)c1 (centres unmarked) [Compound 21, 3-Fluoro-1-(3-m-tolyloxy-benzyl)-pyrrolidine-3-carboxylic acid (pyridin-2-ylmethyl)-amide]	> 20 µM	1 to 5 µM
Cc1ccc(Oc2cccc(CN3CCC(F)(C(=O)NCc4ccccn4)C3)c2)cc1 (centres unmarked) [Compound 22, 3-Fluoro-1-(3-p-tolyloxy-benzyl)-pyrrolidine-3-carboxylic acid (pyridin-2-ylmethyl)-amide]	> 20 µM	1 to 5 µM
COc1cccc(Oc2cccc(CN3CCC(F)(C(=O)NCc4ccccn4)C3)c2)c1 (centres unmarked) [Compound 23, 3-Fluoro-1-[3-(3-methoxy-phenoxy)-benzyl]-pyrrolidine-3-carboxylic acid (pyridin-2-ylmethyl)-amide]	> 20 µM	1 to 5 µM
O=C(NCc1ccccn1)C1(F)CCN(Cc2cccc(Oc3ccc(F)c(F)c3)c2)C1 (centres unmarked) [Compound 24, 1-[3-(3,4-Difluoro-phenoxy)-benzyl]-3-fluoro-pyrrolidine-3-carboxylic acid (pyridin-2-ylmethyl)-amide]	> 20 µM	1 to 5 µM
O=C(NCc1ccccn1)C1(F)CCN(Cc2cccc(Oc3cccc(C(F)(F)F)c3)c2)C1 (centres unmarked) [Compound 25, 3-Fluoro-1-[3-(3-trifluoromethyl-phenoxy)-benzyl]-pyrrolidine-3-carboxylic acid (pyridin-2-ylmethyl)-amide]	> 20 µM	1 to 5 µM
CC(C)c1ccc(Oc2cccc(CN3CCC(F)(C(=O)NCc4ccccn4)C3)c2)cc1 (centres unmarked) [Compound 26, 3-Fluoro-1-[3-(4-isopropyl-phenoxy)-benzyl]-pyrrolidine-3-carboxylic acid (pyridin-2-ylmethyl)-amide]	> 20 µM	1 to 5 µM
CC1(C(=O)NCc2ccccn2)CCN(Cc2cccc(Oc3ncccn3)c2)C1 (centres unmarked) [Compound 27, 3-Methyl-1-[3-(pyrimidin-2-yloxy)-benzyl]-pyrolidine-3-carboxylic acid (pyridin-2-ylmethyl)-amide]	> 20 µM	> 5 µM
CC(C)COc1cccc(CN2CCC(Cn3ccnc3)C2)c1 (centres unmarked) [Compound 28, 1-[1-(3-Isobutoxy-benzyl)-pyrrolidin-3-ylmethyl]-1H-imidazole]	> 20 µM	< 1 µM
O=C(NCc1ccccn1)C1CCN(Cc2cccc(-c3ccccc3)c2)C1 (centres unmarked) [Compound 29, 1-Biphenyl-3-ylmethyl-pyrrolidine-3-carboxylic acid (pyridin-2-ylmethyl)-amide]	10 to 20 µM	1 to 5 µM
O=C(NCc1ccccn1)C1CCN(Cc2cccc(OCC(F)(F)F)c2)C1 (centres unmarked) [Compound 30, 1-[3-(2,2,2-Trifluoro-ethoxy)-benzyl]-pyrrolidine-3-carboxylic acid (pyridin-2-ylmethyl)-amide]	> 20 µM	< 1 µM
O=C(NCc1ccccn1)C1CCN(Cc2ccc3c(c2)OC(F)(F)O3)C1 (centres unmarked) [Compound 31, 1-(2,2-Difluoro-benzo[1,3]dioxol-5-ylmethyl)-pyrrolidine-3-carboxylic acid (pyridin-2-ylmethyl)-amide]	> 20 µM	1 to 5 µM
CC1(C)Cc2cc(CN3CCC(C(=O)NCc4ccccn4)C3)ccc2O1 (centres unmarked) [Compound 32, 1-(2,2-Dimethyl-2,3-dihydro-benzofuran-5-ylmethyl)-pyrrolidine-3-carboxylic acid (pyridin-2-ylmethyl)-amide]	> 20 µM	1 to 5 µM
CC1(C)Oc2ccc(CN3CCC(C(=O)NCc4ccccn4)C3)cc2O1 (centres unmarked) [Compound 33, 1-(2,2-Dimethyl-benzo[1,3]dioxol-5-ylmethyl)-pyrrolidine-3-carboxylic acid (pyridin-2-ylmethyl)-amide]	> 20 µM	1 to 5 µM
